Data reported in patent US20260078130A1, “NAMPT MODULATORS, PREPARATIONS, AND USES THEREOF” (SIRONAX LTD., priority 2022, published 2026).

Columns and labels:
[1] = target: T1, human enzyme NAMPT (full length) (Homo sapiens, UniProt P43490); assay: NMN fluorescence biochemical assay (stimulation of NMN synthesis by NAMPT); conditions: for EC50: NMN fluorescence assay, purified human NAMPT 100 nM, concentration giving half-maximal activation, read-out: Enzymatic EC50; for Enzymatic Emax: fold change of maximal activation compared to DMSO
T1 construct: human enzyme NAMPT (full length)
Outline: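 Full-length human NAMPT (100 nM) was preincubated 15 min at 37 °C with compound in 50 mM Tris-HCl pH 7.5, 10 mM MgCl2, 2 mM DTT, then reacted 1 h at 37 °C with 50 μM NAM, 100 μM PRPP, 4 mM ATP (stated solution concentrations). NMN was derivatised with acetophenone/KOH then formic acid and read at Ex/Em 382/445 nm; EC50 and Emax (fold over DMSO) reported.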

[2] = system: endogenous NAMPT in U2OS cells; assay: Cellular NAD+ modulation assay (NAD/NADH-Glo, U2OS cells); format: cell-based; conditions: Homo sapiens, 24 hours incubation, cellular NAD+; for maximal fold induction: read-out: Cellular Emax
Outline: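 NAD/NADH-Glo luminescence quantified NAD+ after acid treatment (60 °C, 15 min) and neutralization of DTAB lysates. Beforehand, U2OS cells seeded 16 h earlier received compound concentration series for 24 h at 37 °C. Values given as half-maximal activation concentration (EC50) and maximal fold change versus DMSO (Emax).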

T1 sequence (P43490 whole entry): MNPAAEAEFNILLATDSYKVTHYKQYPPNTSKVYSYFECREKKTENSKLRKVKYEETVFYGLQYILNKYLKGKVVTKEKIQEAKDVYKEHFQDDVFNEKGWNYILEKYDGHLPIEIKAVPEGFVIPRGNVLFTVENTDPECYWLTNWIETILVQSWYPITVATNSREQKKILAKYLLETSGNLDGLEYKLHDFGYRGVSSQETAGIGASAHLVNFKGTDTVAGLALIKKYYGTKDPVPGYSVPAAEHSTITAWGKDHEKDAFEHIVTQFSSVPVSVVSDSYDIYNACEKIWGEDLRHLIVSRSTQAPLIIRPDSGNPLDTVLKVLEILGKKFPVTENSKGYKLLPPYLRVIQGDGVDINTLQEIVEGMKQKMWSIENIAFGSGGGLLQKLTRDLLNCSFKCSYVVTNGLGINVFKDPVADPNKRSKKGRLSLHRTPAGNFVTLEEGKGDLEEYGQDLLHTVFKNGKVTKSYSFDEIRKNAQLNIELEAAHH

Row | SMILES | EC50 [1] | Enzymatic Emax [1] | EC50 [2] | maximal fold induction [2]
1 | Cn1ncc(Cl)c1CC1c2scnc2C(=O)N1Cc1ccc(O)cc1 (centres unmarked) [Compound 430, 6-((4-chloro-1-methyl-1H-pyrazol-5-yl)methyl)-5-(4-hydroxybenzyl)-5,6-dihydro-4H-pyrrolo[3,4-d]thiazol-4-one] | < 500 nM | B (3≥B>2) | < 500 nM | > 1.5
2 | Cn1ncc(Cl)c1CC1c2cc(Br)ccc2C(=O)N1Cc1ccc2[nH]c(=O)oc2c1 (centres unmarked) [Compound 431, 6-((5-bromo-3-((4-chloro-1-methyl-1H-pyrazol-5-yl)methyl)-1-oxoisoindolin-2-yl)methyl)benzo[d]oxazol-2(3H)-one] | < 500 nM | A (A>3) | < 500 nM | > 1.5
3 | Cn1ncc(Cl)c1CC1c2cc(C(F)F)ccc2C(=O)N1Cc1ccc2[nH]nnc2c1 (centres unmarked) [Compound 435, 2-((1H-benzo[d][1,2,3]triazol-5-yl)methyl)-3-((4-chloro-1-methyl-1H-pyrazol-5-yl)methyl)-5-(difluoromethyl)isoindolin-1-one] | < 500 nM | A (A>3) | < 500 nM | > 1.5
4 | COCc1ccc2c(c1)C(Cc1c(Cl)cnn1C)N(Cc1ccc3[nH]nnc3c1)C2=O (centres unmarked) [Compound 436, 2-((1H-benzo[d][1,2,3]triazol-5-yl)methyl)-3-((4-chloro-1-methyl-1H-pyrazol-5-yl)methyl)-5-(methoxymethyl)isoindolin-1-one] | < 500 nM | A (A>3) | < 500 nM | > 1.5
5 | Cn1ncc(Cl)c1CC1c2cc(OC3CNC3)ccc2C(=O)N1Cc1ccc2[nH]nnc2c1 (centres unmarked) [Compound 437, 2-((1H-benzo[d][1,2,3]triazol-5-yl)methyl)-5-(azetidin-3-yloxy)-3-((4-chloro-1-methyl-1H-pyrazol-5-yl)methyl)isoindolin-1-one] | < 500 nM | A (A>3) | 5000 to 50000 nM | > 1.5
6 | Cn1nc(C2CNC2)c(Cl)c1CC1c2ccccc2C(=O)N1Cc1ccc2[nH]nnc2c1 (centres unmarked) [Compound 438, 2-((1H-benzo[d][1,2,3]triazol-5-yl)methyl)-3-((3-(azetidin-3-yl)-4-chloro-1-methyl-1H-pyrazol-5-yl)methyl)isoindolin-1-one] | < 500 nM | B (3≥B>2) | 500 to 5000 nM | > 1.5
7 | Cc1ccnc(C(N)=O)c1CC1c2ccccc2C(=O)N1Cc1ccc2[nH]nnc2c1 (centres unmarked) [Compound 444, 3-((2-((1H-benzo[d][1,2,3]triazol-5-yl)methyl)-3-oxoisoindolin-1-yl)methyl)-4-methylpicolinamide] | 500 to 5000 nM | A (A>3) | 500 to 5000 nM | > 1.5
8 | N#Cc1ccnc(C#N)c1CC1c2ccccc2C(=O)N1CC1CC2(CNC(=O)O2)C1 (centres unmarked) [Compound 446, 3-((3-oxo-2-((6-oxo-5-oxa-7-azaspiro[3.4]octan-2-yl)methyl)isoindolin-1-yl)methyl)pyridine-2,4-dicarbonitrile] | < 500 nM | B (3≥B>2) | < 500 nM | > 1.5
9 | O=C1c2ccccc2C(Cc2nc(Br)sc2Cl)N1Cc1ccc2[nH]nnc2c1 (centres unmarked) [Compound 448, 2-((1H-benzo[d][1,2,3]triazol-5-yl)methyl)-3-((2-bromo-5-chlorothiazol-4-yl)methyl)isoindolin-1-one] | < 500 nM | A (A>3) | 500 to 5000 nM | > 1.5
10 | Cc1ccnc(C#N)c1CC1c2ccc(F)cc2C(=O)N1CC1CC2(CNC(=O)O2)C1 (centres unmarked) [Compound 449, 3-((5-fluoro-3-oxo-2-((6-oxo-5-oxa-7-azaspiro[3.4]octan-2-yl)methyl)isoindolin-1-yl)methyl)-4-methylpicolinonitrile] | 500 to 5000 nM | B (3≥B>2) | < 500 nM | > 1.5
11 | Cn1ncc(Cl)c1CC1c2cc(Br)ccc2C(=O)N1CC1CC2(CNC(=O)O2)C1 (centres unmarked) [Compound 450, 2-((5-bromo-3-((4-chloro-1-methyl-1H-pyrazol-5-yl)methyl)-1-oxoisoindolin-2-yl)methyl)-5-oxa-7-azaspiro[3.4]octan-6-one] | 500 to 5000 nM | A (A>3) | < 500 nM | > 1.5
12 | COc1nn(C)c(CC2c3ccccc3C(=O)N2CC2CC3(CNC(=O)O3)C2)c1Cl (centres unmarked) [Compound 451, 2-((1-((4-chloro-3-methoxy-1-methyl-1H-pyrazol-5-yl)methyl)-3-oxoisoindolin-2-yl)methyl)-5-oxa-7-azaspiro[3.4]octan-6-one] | < 500 nM | B (3≥B>2) | < 500 nM | > 1.5
13 | Cn1ncc(Cl)c1CC1c2ccccc2C(=O)N1CC#Cc1cn[nH]c1 (centres unmarked) [Compound 453, 2-(3-(1H-pyrazol-4-yl)prop-2-yn-1-yl)-3-((4-chloro-1-methyl-1H-pyrazol-5-yl)methyl)isoindolin-1-one] | < 500 nM | B (3≥B>2) | < 500 nM | > 1.5
14 | N#Cc1cncc(C#N)c1CC1c2ccccc2C(=O)N1CC1CC2(CNC(=O)O2)C1 (centres unmarked) [Compound 459, 4-((3-oxo-2-((6-oxo-5-oxa-7-azaspiro[3.4]octan-2-yl)methyl)isoindolin-1-yl)methyl)pyridine-3,5-dicarbonitrile] | 500 to 5000 nM | A (A>3) | < 500 nM | > 1.5
15 | Cc1cccc2c1C(=O)N(CC1CC3(CNC(=O)O3)C1)C2Cc1c(Cl)cnn1C (centres unmarked) [Compound 460, 2-((1-((4-chloro-1-methyl-1H-pyrazol-5-yl)methyl)-4-methyl-3-oxoisoindolin-2-yl)methyl)-5-oxa-7-azaspiro[3.4]octan-6-one] | < 500 nM | B (3≥B>2) | < 500 nM | > 1.5
16 | Cn1ncc(Cl)c1CC1c2cc(CN3CCOCC3)ccc2C(=O)N1CC1CC2(CNC(=O)O2)C1 (centres unmarked) [Compound 461, 2-((3-((4-chloro-1-methyl-1H-pyrazol-5-yl)methyl)-5-(morpholinomethyl)-1-oxoisoindolin-2-yl)methyl)-5-oxa-7-azaspiro[3.4]octan-6-one] | 500 to 5000 nM | B (3≥B>2) | 500 to 5000 nM | > 1.5
17 | Cn1ncc(Cl)c1CC1c2cc(CN3CCCC3)ccc2C(=O)N1CC1CC2(CNC(=O)O2)C1 (centres unmarked) [Compound 462, 2-((3-((4-chloro-1-methyl-1H-pyrazol-5-yl)methyl)-1-oxo-5-(pyrrolidin-1-ylmethyl)isoindolin-2-yl)methyl)-5-oxa-7-azaspiro[3.4]octan-6-one] | 500 to 5000 nM | C (2≥C) | 5000 to 50000 nM | > 1.5
18 | Cn1ncc(Cl)c1CC1c2cc(N3CCOCC3)ccc2C(=O)N1CC1CC2(CNC(=O)O2)C1 (centres unmarked) [Compound 463, 2-((3-((4-chloro-1-methyl-1H-pyrazol-5-yl)methyl)-5-morpholino-1-oxoisoindolin-2-yl)methyl)-5-oxa-7-azaspiro[3.4]octan-6-one] | 500 to 5000 nM | B (3≥B>2) | < 500 nM | > 1.5
19 | Cn1ncc(Cl)c1CC1c2cc(C#N)ccc2C(=O)N1CC1CC2(CNC(=O)O2)C1 (centres unmarked) [Compound 464, 3-((4-chloro-1-methyl-1H-pyrazol-5-yl)methyl)-1-oxo-2-((6-oxo-5-oxa-7-azaspiro[3.4]octan-2-yl)methyl)isoindoline-5-carbonitrile] | 500 to 5000 nM | B (3≥B>2) | 500 to 5000 nM | > 1.5
20 | CCn1ncc(Cl)c1CC1c2ccccc2C(=O)N1CC1CC2(CNC(=O)O2)C1 (centres unmarked) [Compound 465, 2-((1-((4-chloro-1-ethyl-1H-pyrazol-5-yl)methyl)-3-oxoisoindolin-2-yl)methyl)-5-oxa-7-azaspiro[3.4]octan-6-one] | 500 to 5000 nM | B (3≥B>2) | < 500 nM | > 1.5
21 | Cn1c(CC2c3ccccc3C(=O)N2CC2CC3(CNC(=O)O3)C2)c(Cl)ccc1=O (centres unmarked) [Compound 467, 2-((1-((3-chloro-1-methyl-6-oxo-1,6-dihydropyridin-2-yl)methyl)-3-oxoisoindolin-2-yl)methyl)-5-oxa-7-azaspiro[3.4]octan-6-one] | < 500 nM | B (3≥B>2) | < 500 nM | > 1.5
22 | Cn1cnc(Cl)c1CC1c2ccccc2C(=O)N1CC1CC2(CNC(=O)O2)C1 (centres unmarked) [Compound 468, 2-((1-((4-chloro-1-methyl-1H-imidazol-5-yl)methyl)-3-oxoisoindolin-2-yl)methyl)-5-oxa-7-azaspiro[3.4]octan-6-one] | 500 to 5000 nM | B (3≥B>2) | 500 to 5000 nM | > 1.5
23 | O=C1NCC2(CC(CN3C(=O)c4ccccc4C3Cc3c(Cl)nc4sccn34)C2)O1 (centres unmarked) [Compound 469, 2-((1-((6-chloroimidazo[2,1-b]thiazol-5-yl)methyl)-3-oxoisoindolin-2-yl)methyl)-5-oxa-7-azaspiro[3.4]octan-6-one] | 500 to 5000 nM | B (3≥B>2) | < 500 nM | > 1.5
